Test results: paper PMC3663987 (Parasitology Research, 2013)

Target: P-glycoprotein (Pgp, ABCB1) (Homo sapiens, UniProt P08183)
Assay: Pgp-Glo ATPase stimulation assay, recombinant human Pgp membranes
Assay type: biochemical

Chain of P-glycoprotein (Pgp, ABCB1) (P08183 whole entry): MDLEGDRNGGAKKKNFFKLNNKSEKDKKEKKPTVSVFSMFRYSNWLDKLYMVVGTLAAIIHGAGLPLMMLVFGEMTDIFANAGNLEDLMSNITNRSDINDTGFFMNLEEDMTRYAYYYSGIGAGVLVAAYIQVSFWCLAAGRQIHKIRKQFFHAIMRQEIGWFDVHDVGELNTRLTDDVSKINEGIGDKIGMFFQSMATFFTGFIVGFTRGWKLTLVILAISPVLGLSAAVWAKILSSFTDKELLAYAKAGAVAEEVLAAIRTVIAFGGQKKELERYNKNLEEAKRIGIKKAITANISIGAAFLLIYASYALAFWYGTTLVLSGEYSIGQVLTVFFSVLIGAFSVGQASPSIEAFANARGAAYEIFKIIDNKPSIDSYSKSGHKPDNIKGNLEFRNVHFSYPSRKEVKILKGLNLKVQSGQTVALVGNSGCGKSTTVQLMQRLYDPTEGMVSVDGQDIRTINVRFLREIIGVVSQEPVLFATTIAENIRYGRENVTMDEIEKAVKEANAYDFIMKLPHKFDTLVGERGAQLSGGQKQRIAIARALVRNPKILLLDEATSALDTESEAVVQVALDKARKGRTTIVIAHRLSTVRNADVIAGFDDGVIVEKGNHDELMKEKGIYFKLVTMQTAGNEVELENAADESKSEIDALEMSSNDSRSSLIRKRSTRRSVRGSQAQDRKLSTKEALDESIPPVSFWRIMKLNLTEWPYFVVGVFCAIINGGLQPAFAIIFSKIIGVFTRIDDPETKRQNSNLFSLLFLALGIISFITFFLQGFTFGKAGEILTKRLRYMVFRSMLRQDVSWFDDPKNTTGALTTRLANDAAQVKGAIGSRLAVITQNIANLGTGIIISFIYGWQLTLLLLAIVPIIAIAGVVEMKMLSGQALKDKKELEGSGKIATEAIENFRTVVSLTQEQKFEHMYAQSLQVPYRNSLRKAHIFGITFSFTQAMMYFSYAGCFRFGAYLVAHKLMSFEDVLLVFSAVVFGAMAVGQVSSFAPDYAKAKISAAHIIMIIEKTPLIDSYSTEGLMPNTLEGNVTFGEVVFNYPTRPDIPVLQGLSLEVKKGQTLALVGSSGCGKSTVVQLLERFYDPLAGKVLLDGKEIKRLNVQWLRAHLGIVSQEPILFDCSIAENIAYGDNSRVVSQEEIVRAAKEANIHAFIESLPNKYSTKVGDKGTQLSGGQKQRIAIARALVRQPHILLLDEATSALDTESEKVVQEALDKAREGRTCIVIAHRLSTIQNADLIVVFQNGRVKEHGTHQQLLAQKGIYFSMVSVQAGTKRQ

EC50: 277 µM
Structure (SMILES): O=C(Cn1ccnc1[N+](=O)[O-])NCc1ccccc1 [Bz, N-Benzyl-2-nitro-1H-imidazole-1-acetamide]
